Values quoted from earlier work in patent US5942536A, “N-[2-substituted-3-(2-aminoethyl)-1H-indol-5-YL]-Amides: new 5-HT1F agonists” (Eli Lilly and Company, priority 1998, dated 1999).

Legend:
5-HT1F receptor = target: T1, 5-HT1F receptor (Homo sapiens, UniProt P30939); settings: literature (Weinshank); reference for Emax
T1 sequence (P30939 1-366): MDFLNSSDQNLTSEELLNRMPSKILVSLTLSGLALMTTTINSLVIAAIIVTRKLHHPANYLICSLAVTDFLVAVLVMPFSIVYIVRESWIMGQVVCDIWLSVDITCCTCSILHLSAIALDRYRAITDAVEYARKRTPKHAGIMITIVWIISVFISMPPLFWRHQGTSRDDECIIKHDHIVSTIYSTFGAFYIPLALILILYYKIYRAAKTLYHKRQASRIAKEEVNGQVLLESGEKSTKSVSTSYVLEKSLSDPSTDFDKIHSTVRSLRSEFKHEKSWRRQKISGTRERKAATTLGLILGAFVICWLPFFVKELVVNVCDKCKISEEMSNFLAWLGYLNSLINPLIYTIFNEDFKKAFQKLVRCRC

[1] = tested on: cephalic vascular smooth muscle; settings: literature (Humphrey, et al.)
[2] = literature (Humphrey, et al.)
neurogenic inflammation = settings: literature (Moskowitz)

| SMILES | effect on forskolin stimulated cAMP production (5-HT1F receptor) | contraction of cephalic vascular smooth muscle [1] | effective in the treatment of migraine [2] | block of neurogenic inflammation (neurogenic inflammation) |
| --- | --- | --- | --- | --- |
| NCCc1c[nH]c2ccc(O)cc12 [serotonin] | maximal effect | – | – | – |
| CNS(=O)(=O)Cc1ccc2[nH]cc(CCN(C)C)c2c1 [sumatriptan] | – | contract cephalic vascular smooth muscle | effective in the treatment of migraine | blocked |
